Here are results for 2 molecules from patent US20260232578A1, “COMPOSITIONS AND METHODS FOR TRANSMUCOSAL ABSORPTION” (Tonix Pharma Limited, priority 2012, published 2026).

The target in experiment [1] is T1, D3 (Homo sapiens, UniProt P35462).
T1 construct: expressed in transfected cells
Briefly: Equilibrium receptor binding, recombinant human receptor.

For experiment [2], the target named is T2, histamine H1 receptor (Homo sapiens, UniProt P35367).
T2 construct: expressed in transfected cells
In words: G-protein-dependent signal transduction, intracellular Ca2+ mobilization. The conditions noted are these: for IC50: H1, Ca2+ mobilization, read-out: IC50, functional antagonist. The experiment is classed as cell-based. On the technique in general: Calcium flux is commonly read through the fluorescence of an indicator in the cells.

Experiment [3] addresses T3, 5-HT2A (Homo sapiens, UniProt P28223).
T3 construct: expressed in transfected cells
Briefly: G-protein-independent signal transduction, β-arrestin signaling. The experiment is classed as cell-based. The conditions noted are these: for IC50: β-arrestin signaling, read-out: IC50, functional antagonist.

Experiment [4] concerns the target T4, adrenergic α1B receptor (Homo sapiens, UniProt P35368).
T4 construct: expressed in transfected cells
T4 sequence (P35368 1-520): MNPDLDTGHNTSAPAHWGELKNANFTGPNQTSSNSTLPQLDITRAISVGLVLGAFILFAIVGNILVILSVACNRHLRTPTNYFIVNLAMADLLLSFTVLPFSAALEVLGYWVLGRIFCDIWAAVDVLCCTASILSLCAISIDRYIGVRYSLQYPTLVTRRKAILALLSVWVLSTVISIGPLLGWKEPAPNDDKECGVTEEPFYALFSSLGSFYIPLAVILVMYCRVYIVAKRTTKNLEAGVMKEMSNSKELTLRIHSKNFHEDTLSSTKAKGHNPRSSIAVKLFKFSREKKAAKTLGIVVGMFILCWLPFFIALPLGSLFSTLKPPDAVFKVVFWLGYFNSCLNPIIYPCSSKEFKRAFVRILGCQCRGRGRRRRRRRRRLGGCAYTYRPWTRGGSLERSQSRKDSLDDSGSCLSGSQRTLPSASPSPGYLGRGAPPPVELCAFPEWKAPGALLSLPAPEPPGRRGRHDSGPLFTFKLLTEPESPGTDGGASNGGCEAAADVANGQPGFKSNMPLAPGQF
Described as above. The experiment is classed as cell-based. The conditions noted are these: for IC50: α1B, β-arrestin signaling, read-out: IC50, functional antagonist.

Experiment [5] deals with α1B (Homo sapiens, UniProt P35368). In words: Functional antagonism, G-protein-dependent signal transduction (Table 69).
Experiment [6] addresses T5, 5-HT2B (Homo sapiens, UniProt P41595).
T5 construct: expressed in transfected cells
In words: Equilibrium receptor binding, recombinant human receptor.

Experiment [7] has as its target T5, 5-HT2B. In words: G-protein-dependent signal transduction, intracellular Ca2+ mobilization. The experiment is classed as cell-based. The conditions noted are these: for IC50: Ca2+ mobilization, read-out: IC50, functional antagonist. The procedure:
(§1) Quantitation was based on peak area ratio of the analytes versus their stable labeled internal standards. A weighted (1/C2), linear regression was performed to determine the concentration of the analytes. All regressions and figures presented in this validation report were generated by MDS Sciex Analyst version 1.4.2 and Thermo Electron Corporation Watson LIMS software, version 7.0.0.01b. […] Select receptors were analyzed in ligand-induced intracellular calcium mobilization.

The target of experiment [8] is T6, 5-HT2C (Homo sapiens, UniProt P28335).
T6 construct: expressed in transfected cells
T6 sequence (P28335 33-458): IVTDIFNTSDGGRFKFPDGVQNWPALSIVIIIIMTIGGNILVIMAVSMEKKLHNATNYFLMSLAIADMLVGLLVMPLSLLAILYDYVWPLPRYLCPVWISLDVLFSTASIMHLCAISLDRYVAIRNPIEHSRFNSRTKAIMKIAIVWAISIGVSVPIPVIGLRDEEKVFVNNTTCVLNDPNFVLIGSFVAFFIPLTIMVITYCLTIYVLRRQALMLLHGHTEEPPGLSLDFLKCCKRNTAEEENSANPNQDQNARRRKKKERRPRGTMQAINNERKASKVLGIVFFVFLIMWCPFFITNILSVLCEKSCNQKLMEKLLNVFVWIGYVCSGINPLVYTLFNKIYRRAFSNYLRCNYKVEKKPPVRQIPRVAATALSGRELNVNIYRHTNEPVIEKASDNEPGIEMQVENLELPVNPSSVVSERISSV
Briefly: G-protein-dependent signal transduction, turnover of inositol triphosphate (IP). The class given is cell-based. The conditions noted are these: read-out: IC50 (nM) (Antagonist).

Experiment [9] addresses T7, 5-HT1A receptor (Homo sapiens, UniProt P08908).
T7 construct: expressed in transfected cells
T7 sequence (P08908 1-422): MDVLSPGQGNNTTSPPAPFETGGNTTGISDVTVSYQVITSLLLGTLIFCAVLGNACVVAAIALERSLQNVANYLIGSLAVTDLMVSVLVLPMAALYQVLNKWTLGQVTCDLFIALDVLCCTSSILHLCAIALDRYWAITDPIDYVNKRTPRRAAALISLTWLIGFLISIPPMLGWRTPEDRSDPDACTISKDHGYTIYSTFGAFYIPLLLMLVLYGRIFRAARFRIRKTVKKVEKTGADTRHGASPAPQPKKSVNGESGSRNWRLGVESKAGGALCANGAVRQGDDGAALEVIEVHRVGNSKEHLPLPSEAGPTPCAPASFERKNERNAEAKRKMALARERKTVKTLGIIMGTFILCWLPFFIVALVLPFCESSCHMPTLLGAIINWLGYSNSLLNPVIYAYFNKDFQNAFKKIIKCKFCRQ
Briefly: G-protein-dependent signal transduction (functional agonism). The experiment is classed as cell-based. The procedure: as §1

For experiment [10], the target named is T8, dopamine D1 receptor (Homo sapiens, UniProt P21728).
T8 construct: expressed in transfected cells
T8 sequence (P21728 whole entry): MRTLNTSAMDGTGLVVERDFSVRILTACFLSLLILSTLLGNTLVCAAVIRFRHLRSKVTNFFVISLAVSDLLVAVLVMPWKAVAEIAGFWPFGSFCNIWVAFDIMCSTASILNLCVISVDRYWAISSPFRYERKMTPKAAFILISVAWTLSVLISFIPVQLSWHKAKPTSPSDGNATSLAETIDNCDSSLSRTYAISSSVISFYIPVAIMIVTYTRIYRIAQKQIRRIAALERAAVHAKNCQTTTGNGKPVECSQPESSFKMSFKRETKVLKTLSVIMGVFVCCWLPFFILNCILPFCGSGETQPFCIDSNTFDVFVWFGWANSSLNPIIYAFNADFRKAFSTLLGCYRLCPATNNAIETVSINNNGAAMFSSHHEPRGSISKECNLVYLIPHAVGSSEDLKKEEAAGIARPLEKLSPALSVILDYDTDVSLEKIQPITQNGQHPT
Briefly: Equilibrium receptor binding, recombinant human receptor.

Experiment [11] deals with T9, adrenergic α1A receptor (Alpha1A) (Homo sapiens, UniProt P35348).
T9 construct: expressed in transfected cells
T9 sequence (P35348 1-466): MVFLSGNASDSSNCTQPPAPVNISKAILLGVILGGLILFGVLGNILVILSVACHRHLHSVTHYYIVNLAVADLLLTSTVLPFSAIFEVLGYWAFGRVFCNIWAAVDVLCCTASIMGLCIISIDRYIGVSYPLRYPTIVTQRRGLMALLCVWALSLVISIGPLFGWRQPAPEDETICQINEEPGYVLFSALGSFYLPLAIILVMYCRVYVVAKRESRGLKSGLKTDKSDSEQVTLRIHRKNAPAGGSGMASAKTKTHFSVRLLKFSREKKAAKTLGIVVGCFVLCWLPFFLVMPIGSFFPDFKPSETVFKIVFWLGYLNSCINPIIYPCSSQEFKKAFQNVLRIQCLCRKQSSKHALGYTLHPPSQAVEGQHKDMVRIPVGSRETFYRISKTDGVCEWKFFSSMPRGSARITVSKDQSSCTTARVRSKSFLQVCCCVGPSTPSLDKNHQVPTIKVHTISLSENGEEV
Described as above. The conditions noted are these: for Ki: Alpha1A.

Experiment [12] has as its target T3, 5-HT2A. In words: biochemical. The class given is binding. As to conditions: for Ki: 5-HT2A.
The target in experiment [13] is 5-HT transporter (Homo sapiens, UniProt P31645). In words: Equilibrium binding to transporters (FIG. 19). The conditions noted are these: Serotonin TP (transporter).
5-HT transporter, sequence (P31645 whole entry): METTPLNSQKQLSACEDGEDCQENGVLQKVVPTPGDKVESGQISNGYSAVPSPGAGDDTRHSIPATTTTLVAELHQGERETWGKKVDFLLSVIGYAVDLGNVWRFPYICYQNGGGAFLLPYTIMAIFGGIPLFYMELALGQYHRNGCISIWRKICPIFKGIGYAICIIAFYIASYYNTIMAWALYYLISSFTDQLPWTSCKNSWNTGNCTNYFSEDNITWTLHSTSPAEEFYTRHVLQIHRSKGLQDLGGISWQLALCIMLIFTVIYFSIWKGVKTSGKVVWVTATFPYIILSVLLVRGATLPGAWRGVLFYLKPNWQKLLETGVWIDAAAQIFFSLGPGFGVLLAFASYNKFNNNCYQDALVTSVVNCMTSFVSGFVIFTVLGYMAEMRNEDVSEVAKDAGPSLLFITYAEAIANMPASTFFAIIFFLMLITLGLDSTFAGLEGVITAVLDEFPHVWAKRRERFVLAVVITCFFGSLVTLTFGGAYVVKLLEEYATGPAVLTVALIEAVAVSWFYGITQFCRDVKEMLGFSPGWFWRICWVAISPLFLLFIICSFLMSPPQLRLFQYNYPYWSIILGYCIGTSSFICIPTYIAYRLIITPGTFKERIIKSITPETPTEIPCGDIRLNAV
[14] abbreviates: read-out: EC50, functional agonist.
The mark [15] stands for this setting: read-out: IC50 (nM) (Antagonist).

Several values for one entry are separate records, joined by “and”; a condition that tells them apart may be missing. Equal entries are not always repeated. Where two headings read alike, the source gives them in different places.

T5 sequence (P41595 whole entry): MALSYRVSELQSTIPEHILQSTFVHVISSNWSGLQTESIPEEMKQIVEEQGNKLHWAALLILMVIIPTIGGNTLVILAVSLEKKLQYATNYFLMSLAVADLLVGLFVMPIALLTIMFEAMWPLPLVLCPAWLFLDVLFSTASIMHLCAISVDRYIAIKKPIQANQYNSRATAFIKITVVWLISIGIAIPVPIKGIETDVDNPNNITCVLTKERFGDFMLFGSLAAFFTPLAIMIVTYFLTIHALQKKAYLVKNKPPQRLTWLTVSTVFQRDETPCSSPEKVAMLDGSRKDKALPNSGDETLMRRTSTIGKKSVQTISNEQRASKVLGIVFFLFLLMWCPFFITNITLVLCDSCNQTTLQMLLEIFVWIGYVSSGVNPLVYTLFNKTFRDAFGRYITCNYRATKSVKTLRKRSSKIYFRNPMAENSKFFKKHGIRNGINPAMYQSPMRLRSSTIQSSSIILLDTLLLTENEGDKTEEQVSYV
T3 sequence (P28223 whole entry): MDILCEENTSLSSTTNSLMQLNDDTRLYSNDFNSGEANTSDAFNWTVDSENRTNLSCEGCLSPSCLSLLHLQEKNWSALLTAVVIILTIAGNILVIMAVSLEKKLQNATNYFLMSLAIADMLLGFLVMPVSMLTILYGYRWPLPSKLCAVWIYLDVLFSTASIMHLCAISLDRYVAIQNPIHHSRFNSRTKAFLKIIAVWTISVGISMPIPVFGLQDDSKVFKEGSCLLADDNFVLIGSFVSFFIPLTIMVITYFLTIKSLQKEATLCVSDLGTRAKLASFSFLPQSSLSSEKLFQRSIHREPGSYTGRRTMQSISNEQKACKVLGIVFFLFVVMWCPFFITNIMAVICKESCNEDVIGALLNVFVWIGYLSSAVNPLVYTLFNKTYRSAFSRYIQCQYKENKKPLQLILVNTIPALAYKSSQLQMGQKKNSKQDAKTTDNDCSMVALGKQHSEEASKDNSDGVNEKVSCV
T2 sequence (P35367 whole entry): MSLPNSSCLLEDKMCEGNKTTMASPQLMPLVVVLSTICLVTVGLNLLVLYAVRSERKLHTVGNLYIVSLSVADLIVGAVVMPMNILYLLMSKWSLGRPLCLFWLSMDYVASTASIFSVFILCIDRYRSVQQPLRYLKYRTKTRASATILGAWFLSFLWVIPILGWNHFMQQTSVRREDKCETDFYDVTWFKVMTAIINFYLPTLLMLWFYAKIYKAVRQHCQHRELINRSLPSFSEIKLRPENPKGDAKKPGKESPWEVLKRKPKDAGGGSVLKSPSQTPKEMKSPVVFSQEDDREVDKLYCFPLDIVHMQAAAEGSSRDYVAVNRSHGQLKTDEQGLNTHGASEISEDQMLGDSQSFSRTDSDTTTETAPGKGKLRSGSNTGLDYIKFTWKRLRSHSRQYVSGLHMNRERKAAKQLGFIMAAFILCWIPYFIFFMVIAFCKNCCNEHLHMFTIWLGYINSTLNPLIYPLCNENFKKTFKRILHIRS
T1 sequence (P35462 whole entry): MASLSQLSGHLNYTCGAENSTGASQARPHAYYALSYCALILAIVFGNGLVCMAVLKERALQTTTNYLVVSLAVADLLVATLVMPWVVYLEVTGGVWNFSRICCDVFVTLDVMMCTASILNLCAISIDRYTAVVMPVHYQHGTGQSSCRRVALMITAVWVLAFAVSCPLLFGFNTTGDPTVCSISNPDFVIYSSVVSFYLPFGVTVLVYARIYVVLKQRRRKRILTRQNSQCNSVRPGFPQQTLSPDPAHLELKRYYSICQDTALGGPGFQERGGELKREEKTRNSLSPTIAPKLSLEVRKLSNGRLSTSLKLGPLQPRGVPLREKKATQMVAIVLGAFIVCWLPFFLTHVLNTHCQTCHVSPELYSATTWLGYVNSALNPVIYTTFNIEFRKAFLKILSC

The Ki is a measure of affinity in units of concentration, obtained from inhibition or displacement. For orientation: IC50 means the point on the concentration scale where inhibition reaches its midpoint. A word on the EC50: it is the midpoint of the concentration-response curve. On to `CNCCC=C1c2ccccc2C=Cc2ccccc21` [norcyclobenzaprine, 3-(5H-dibenzo[a,d]cyclohepten-5-ylidene)-N-methyl-1-propanamine], for which the Ki in [1] is 98 nM; in experiment [6], 12 nM; in experiment [10], 57 nM; in experiment [11], 34 nM; in [12], 13 nM and 13.2 nM; in experiment [13], 29 nM. Further, the “Four parameter Hill slope (or fit slope) ratio; Ca2+ signaling” value is 0.79 in [2] (H1), 1.54 in experiment [7] and −0.79 in [9]. For the same molecule, the IC50 in experiment [2] came out at 16 nM; in [3] it was 181 nM; in [4] it was 173 nM; in experiment [5] it was 790 nM; in experiment [7] it was 580 nM; in experiment [8], 2000 nM. Also, the IC50 in experiment [9] (setting [15]) was determined as 5300 nM. The “Four parameter Hill slope (or fit slope) ratio; β-arrestin signaling” value in experiment [3] came to 1.11; in experiment [4] (α-1B), 0.70. Further, the “Hill plot ratio (Hill slope)” value turned out to be 1.10 in [6] (equilibrium binding); 1.15 in [10] (equilibrium binding); 1.16 in [11] (equilibrium binding, α-1A); 0.50 in experiment [12]. For the same molecule, the EC50 in experiment [9] (setting [14]) was determined as 3200 nM.
For `CN(C)CCC=C1c2ccccc2C=Cc2ccccc21` [cyclobenzaprine, 3-(5H-dibenzo[a,d]cyclohepten-5-ylidene)-N,N-dimethyl-1-propanamine], the inhibition constant Ki in experiment [1] was 34 nM; in experiment [6], 15 nM; in experiment [10], 12 nM; in experiment [11], 5.6 nM; in experiment [12], 5.2 nM and 5.1 nM. For the same molecule, the IC50 in experiment [2] was determined as 5.2 nM; in experiment [3], 99 nM; in [4], 144 nM; in [5] it was 530 nM; in experiment [7], 100 nM; in experiment [8], 770 nM. Besides, the IC50 in experiment [13] (setting [15]) turned out to be 91 nM. The results for the EC50 in experiment [9] (read-out: EC50 (nM) (Agonist)) and in experiment [9] (setting [14]) were 3200 nM and 5300 nM, respectively.
